# Measured values from ChEMBL document CHEMBL5154904, “Discovery and Structural Basis of the Selectivity of Potent Cyclic Peptide Inhibitors of MAGE-A4” (J Med Chem, 2022).
# Numbering of substitutions follows the chain as printed. The source made the active and inactive calls. No cut-off for these calls is given here. Positions of bridges follow the written chain, without caps; N, C: chain ends. Residues, ends and D or L forms follow the SMILES beside them.
# What was measured:
# Homo sapiens [1] = species on record: Homo sapiens; assay: Inhibition of Eu-W1024 streptavidin-labeled 6 xHis-tagged MAGEA4-MH domain E225A mutant (unknown origin) expressed in Escherichia coli BL21-(DE3) interaction with Ulight-labeled GST-tagged RAD18 (unknown origin) (267 to 402 residues) at 1 uM by LANCE TR-FRET assay
# [2] = test system: T1, Melanoma-associated antigen 4 (Homo sapiens), P43358 [R299A]; assay: Binding affinity to recombinant N-terminal His-tagged MAGEA4-MH domain R299A mutant (unknown origin) expressed in Escherichia coli BL21-(DE3) assessed as increase in thermal stability by SYPRO orange dye based differential scanning fluorimetry; settings: dose <= 10.0 µM
# T1 sequence (whole entry): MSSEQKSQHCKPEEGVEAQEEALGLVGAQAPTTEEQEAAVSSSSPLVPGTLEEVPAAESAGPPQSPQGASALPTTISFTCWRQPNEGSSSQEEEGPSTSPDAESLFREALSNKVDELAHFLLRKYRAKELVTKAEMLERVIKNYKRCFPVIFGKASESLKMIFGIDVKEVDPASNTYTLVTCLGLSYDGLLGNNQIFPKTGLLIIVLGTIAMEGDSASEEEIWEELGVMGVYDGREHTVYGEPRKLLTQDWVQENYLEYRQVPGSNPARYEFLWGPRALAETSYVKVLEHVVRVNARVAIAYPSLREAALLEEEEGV
# [3] = test system: T2, Melanoma-associated antigen 4 (Homo sapiens), P43358 [V294A]; assay: Binding affinity to recombinant N-terminal His-tagged MAGEA4-MH domain V294A mutant (unknown origin) expressed in Escherichia coli BL21-(DE3) assessed as increase in thermal stability by SYPRO orange dye based differential scanning fluorimetry; settings: dose <= 10.0 µM
# T2 sequence (whole entry): T1 sequence (whole entry) with V294A, A299R
# [4] = Inhibition of Eu-W1024 streptavidin-labeled 6 xHis-tagged MAGEA4-MH domain (unknown origin) expressed in Escherichia coli BL21-(DE3)/GST-tagged RAD18 (unknown origin) (267 to 402 residues) interaction using Ulight-anti-GST antibody incubated for 30 to 60 mins by LANCE TR-FRET assay; set-up: species or system Homo sapiens
# Homo sapiens [5] = species on record: Homo sapiens; assay: Inhibition of Eu-W1024 streptavidin-labeled 6 xHis-tagged MAGEA4-MH domain M161A mutant (unknown origin) expressed in Escherichia coli BL21-(DE3) interaction with Ulight-labeled GST-tagged RAD18 (unknown origin) (267 to 402 residues) at 1 uM by LANCE TR-FRET assay
# [6] = test system: T3, Melanoma-associated antigen 4 (Homo sapiens), P43358 [I205A]; assay: Binding affinity to recombinant N-terminal His-tagged MAGEA4-MH domain I205A mutant (unknown origin) expressed in Escherichia coli BL21-(DE3) assessed as increase in thermal stability by SYPRO orange dye based differential scanning fluorimetry; settings: dose <= 10.0 µM
# T3 sequence (whole entry): T1 sequence (whole entry) with I205A, A299R
# [7] = test system: T4, Melanoma-associated antigen 4 (Homo sapiens), P43358 [R297A]; assay: Binding affinity to recombinant N-terminal His-tagged MAGEA4-MH domain R297A mutant (unknown origin) expressed in Escherichia coli BL21-(DE3) assessed as increase in thermal stability by SYPRO orange dye based differential scanning fluorimetry; settings: dose <= 10.0 µM
# T4 sequence (whole entry): T1 sequence (whole entry) with R297A, A299R
# [8] = test system: T5, Melanoma-associated antigen 4 (Homo sapiens), P43358 [E225A]; assay: Binding affinity to recombinant N-terminal His-tagged MAGEA4-MH domain E225A mutant (unknown origin) expressed in Escherichia coli BL21-(DE3) assessed as increase in thermal stability by SYPRO orange dye based differential scanning fluorimetry; settings: dose <= 10.0 µM
# T5 sequence (whole entry): T1 sequence (whole entry) with E225A, A299R
# [9] = test system: T6, Melanoma-associated antigen 4 (Homo sapiens), P43358 [V291A]; assay: Binding affinity to recombinant N-terminal His-tagged MAGEA4-MH domain V291A mutant (unknown origin) expressed in Escherichia coli BL21-(DE3) assessed as increase in thermal stability by SYPRO orange dye based differential scanning fluorimetry; settings: dose <= 10.0 µM
# T6 sequence (whole entry): T1 sequence (whole entry) with V291A, A299R
smiles,measurement,setting,value
CC[C@H](C)[C@@H]1NC(=O)[C@H](Cc2ccc(O)cc2)NC(=O)CSC[C@@H](C(N)=O)NC(=O)[C@H](CC(N)=O)NC(=O)[C@H](Cc2cnc[nH]2)NC(=O)[C@H](Cc2ccc(O)cc2)NC(=O)[C@H](CC(=O)O)NC(=O)[C@H](Cc2ccc(O)cc2)NC(=O)[C@H](CC(C)C)NC(=O)[C@H](CCCNC(=N)N)NC1=O ({CH2CO}-YIRLYDYHNC-NH2; thioether N-10),inhibition,Homo sapiens [1],Active
same,Tm,[2],< 3.5 °C
same,Tm,[3],< 3.5 °C
same,IC50,[4],3.65 nM
same,inhibition,Homo sapiens [5],Active
same,Tm,[6],< 3.5 °C
same,Tm,[7],< 3.5 °C
same,Tm,[8],< 3.5 °C
same,Tm,[9],< 3.5 °C
